ChEMBL document CHEMBL1201862, “PubChem BioAssay data set” (2004)
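Compound exposure: 48 hours, 5 concentrations, 96-well plates. GI50 = concentration required for 50% inhibition of growth.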 The source made the active and inactive calls. Rule as the data show it: active = GI50 up to about 1.1 µM and inactive = higher.

Tests used:
Experiment in all cases: growth of human tumour cells (NCI), 48 h
OVCAR-4 = system: OVCAR-4
MCF7 = system: MCF7
HOP-92 = system: HOP-92
A498 = system: A498
786-0 = system: 786-0
NCI-H23 = system: NCI-H23
NCI-H460 = system: NCI-H460
MOLT-4 = system: MOLT-4
Hs-578T = system: Hs-578T
PC-3 = system: PC-3
IGROV-1 = system: IGROV-1
SF-295 = system: SF-295
M14 = system: M14
SK-OV-3 = system: SK-OV-3
RXF 393 = system: RXF 393
CAKI-1 = system: CAKI-1
HCT-15 = system: HCT-15
BT-549 = system: BT-549
OVCAR-5 = system: OVCAR-5
T47D = system: T47D

SMILES	GI50 (OVCAR-4)	GI50 (MCF7)	GI50 (HOP-92)	GI50 (A498)	GI50 (786-0)	GI50 (NCI-H23)	GI50 (NCI-H460)	GI50 (MOLT-4)	GI50 (Hs-578T)	GI50 (PC-3)	GI50 (IGROV-1)	GI50 (SF-295)	GI50 (M14)	GI50 (SK-OV-3)	GI50 (RXF 393)	GI50 (CAKI-1)	GI50 (HCT-15)	GI50 (BT-549)	GI50 (OVCAR-5)	GI50 (T47D)
CN(N=O)C(=O)NNC(=O)N(C)N=O	> 100 µM (inactive)	35.6 µM (inactive)	47.1 µM (inactive)	> 100 µM (inactive)	48.3 µM (inactive)	71.8 µM (inactive)	42.4 µM (inactive)	35.2 µM (inactive)	> 100 µM (inactive)	90.6 µM (inactive)	65.8 µM (inactive)	94.6 µM (inactive)	93.5 µM (inactive)	> 100 µM (inactive)	26.8 µM (inactive)	> 100 µM (inactive)	37.9 µM	91.8 µM (inactive)	> 100 µM (inactive)	79.1 µM (inactive)
COc1cc2c(cc1OC)OC(c1c(OC)ccc(OC)c1O)CC2 (stereo not given)	87.3 µM (inactive)	78.2 µM (inactive)	> 100 µM (inactive)	> 100 µM (inactive)	> 100 µM (inactive)	> 100 µM (inactive)	> 100 µM (inactive)	71.9 µM (inactive)	53.8 µM (inactive)	> 100 µM (inactive)	> 100 µM (inactive)	71.3 µM (inactive)	> 100 µM (inactive)	> 100 µM (inactive)	> 100 µM (inactive)	> 100 µM (inactive)	> 100 µM	> 100 µM (inactive)	> 100 µM (inactive)	65.8 µM (inactive)
COc1ccccc1Nc1nc(N)nc(N)c1N=O	> 100 µM (inactive)	> 100 µM (inactive)	> 100 µM (inactive)	> 100 µM (inactive)	> 100 µM (inactive)	> 100 µM (inactive)	> 100 µM (inactive)	> 100 µM (inactive)	> 100 µM (inactive)	> 100 µM (inactive)	3.91 µM (inactive)	> 100 µM (inactive)	64 µM (inactive)	> 100 µM (inactive)	> 100 µM (inactive)	–	> 100 µM	> 100 µM (inactive)	> 100 µM (inactive)	2.82 µM (inactive)
COc1ccc2c(ccc3c(COC(=O)NC(C)C)c(COC(=O)NC(C)C)n(C)c32)c1	12.4 µM (inactive)	4.75 µM (inactive)	11.2 µM (inactive)	7.33 µM (inactive)	3.26 µM (inactive)	3.5 µM (inactive)	0.414 µM (active)	3.34 µM (inactive)	13.7 µM (inactive)	11.1 µM (inactive)	4.13 µM (inactive)	8.79 µM (inactive)	9.06 µM (inactive)	16.7 µM (inactive)	9.02 µM (inactive)	2.11 µM (inactive)	9.79 µM	11.9 µM (inactive)	9.79 µM (inactive)	7.52 µM (inactive)
O=[N+]([O-])c1cccc(/C=N/NC2=CS(=O)(=O)C=C2)c1	> 100 µM (inactive)	> 100 µM (inactive)	> 100 µM (inactive)	> 100 µM (inactive)	> 100 µM (inactive)	> 100 µM (inactive)	> 100 µM (inactive)	> 100 µM (inactive)	> 100 µM (inactive)	> 100 µM (inactive)	> 100 µM (inactive)	> 100 µM (inactive)	> 100 µM (inactive)	> 100 µM (inactive)	> 100 µM (inactive)	> 100 µM (inactive)	> 100 µM	78.7 µM (inactive)	> 100 µM (inactive)	> 100 µM (inactive)
CSCCC(C(=O)O)N(C)C (stereo not given)	> 100 µM (inactive)	> 100 µM (inactive)	> 100 µM (inactive)	> 100 µM (inactive)	> 100 µM (inactive)	> 100 µM (inactive)	> 100 µM (inactive)	–	> 100 µM (inactive)	> 100 µM (inactive)	> 100 µM (inactive)	> 100 µM (inactive)	> 100 µM (inactive)	> 100 µM (inactive)	> 100 µM (inactive)	> 100 µM (inactive)	> 100 µM	> 100 µM (inactive)	> 100 µM (inactive)	> 100 µM (inactive)
CCOC(=O)c1c(N2CCOCC2)[nH]c(=O)c(C(c2ccc(Cl)c([N+](=O)[O-])c2)c2c(O)c(C(=O)OCC)c(N3CCOCC3)[nH]c2=O)c1O	42.8 µM (inactive)	22 µM (inactive)	23.9 µM (inactive)	> 100 µM (inactive)	28.1 µM (inactive)	25.8 µM (inactive)	> 100 µM (inactive)	25.2 µM (inactive)	> 100 µM (inactive)	14.2 µM (inactive)	–	> 100 µM (inactive)	20.7 µM (inactive)	> 100 µM (inactive)	> 100 µM (inactive)	82.6 µM (inactive)	> 100 µM	24.4 µM (inactive)	> 100 µM (inactive)	19.7 µM (inactive)
CNc1cc2oc(=O)cc(C)c2cc1C	> 100 µM (inactive)	96.8 µM (inactive)	89.3 µM (inactive)	43.2 µM (inactive)	> 100 µM (inactive)	> 100 µM (inactive)	> 100 µM (inactive)	> 100 µM (inactive)	79.1 µM (inactive)	> 100 µM (inactive)	> 100 µM (inactive)	> 100 µM (inactive)	> 100 µM (inactive)	–	> 100 µM (inactive)	> 100 µM (inactive)	> 100 µM	15.4 µM (inactive)	> 100 µM (inactive)	> 100 µM (inactive)
COc1ccccc1C1=C2C(=O)N(C)C(c3ccccc3OC)=C2C(=O)N1C	37.2 µM (inactive)	> 100 µM (inactive)	30.3 µM (inactive)	63 µM (inactive)	29.5 µM (inactive)	59 µM (inactive)	84.1 µM (inactive)	> 100 µM (inactive)	43.8 µM (inactive)	> 100 µM (inactive)	> 100 µM (inactive)	51.4 µM (inactive)	> 100 µM (inactive)	69.8 µM (inactive)	–	> 100 µM (inactive)	> 100 µM	> 100 µM (inactive)	> 100 µM (inactive)	71.3 µM (inactive)
CCOC(=O)c1c(N2CCOCC2)[nH]c(=O)c(C(c2c(O)c(C(=O)OCC)c(N3CCOCC3)[nH]c2=O)C(C)C)c1O	> 100 µM (inactive)	> 100 µM (inactive)	80.5 µM (inactive)	> 100 µM (inactive)	60.1 µM (inactive)	> 100 µM (inactive)	> 100 µM (inactive)	> 100 µM (inactive)	47.9 µM (inactive)	> 100 µM (inactive)	–	58.3 µM (inactive)	> 100 µM (inactive)	86.5 µM (inactive)	> 100 µM (inactive)	> 100 µM (inactive)	> 100 µM	> 100 µM (inactive)	73.8 µM (inactive)	> 100 µM (inactive)
CCNc1ccc2c(c1)Cc1ccccc1-2	75.3 µM (inactive)	23.7 µM (inactive)	21.2 µM (inactive)	43.3 µM (inactive)	> 100 µM (inactive)	14.3 µM (inactive)	18 µM (inactive)	12.9 µM (inactive)	65.2 µM (inactive)	35.4 µM (inactive)	37 µM (inactive)	47.6 µM (inactive)	66.5 µM (inactive)	–	> 100 µM (inactive)	27.2 µM (inactive)	7.38 µM	34.5 µM (inactive)	> 100 µM (inactive)	> 100 µM (inactive)
COC(=O)c1ccccc1/C=C1\Cc2cc(C)c(C)cc2C1=O	> 100 µM (inactive)	> 100 µM (inactive)	21.2 µM (inactive)	73.3 µM (inactive)	54.8 µM (inactive)	–	> 100 µM (inactive)	> 100 µM (inactive)	40.7 µM (inactive)	> 100 µM (inactive)	> 100 µM (inactive)	49.3 µM (inactive)	> 100 µM (inactive)	–	89.1 µM (inactive)	> 100 µM (inactive)	> 100 µM	34.5 µM (inactive)	> 100 µM (inactive)	> 100 µM (inactive)
c1ccc(COc2ncccc2C2SCCCS2)cc1	> 100 µM (inactive)	84.3 µM (inactive)	> 100 µM (inactive)	> 100 µM (inactive)	> 100 µM (inactive)	> 100 µM (inactive)	–	–	> 100 µM (inactive)	> 100 µM (inactive)	> 100 µM (inactive)	> 100 µM (inactive)	> 100 µM (inactive)	–	66.8 µM (inactive)	> 100 µM (inactive)	> 100 µM	> 100 µM (inactive)	> 100 µM (inactive)	32.9 µM (inactive)
Cc1nc2c(cc1OCc1ccccc1)C(=O)C1=C(C2=O)C2OC(=O)CC2OC1(C)C (stereo not given)	0.498 µM (active)	0.173 µM (active)	0.375 µM (active)	1.6 µM (inactive)	0.3 µM (active)	0.944 µM (active)	1.32 µM (inactive)	0.358 µM (active)	0.169 µM (active)	0.56 µM (active)	0.312 µM (active)	–	0.536 µM (active)	–	0.349 µM (active)	0.468 µM (active)	0.228 µM	0.564 µM (active)	0.973 µM (active)	0.288 µM (active)
CC(=O)NC1C(OC(C)C(=O)NC(C(=O)NC(CCC(=O)NCCCNC2c3ccccc3Nc3cccc([N+](=O)[O-])c32)C(N)=O)C(C)C)C(O)C(CO)OC1(C)OCc1ccccc1 (stereo not given)	1.78 µM (inactive)	0.343 µM (active)	–	1.93 µM (inactive)	0.536 µM (active)	1.61 µM (inactive)	0.108 µM (active)	0.355 µM (active)	1.64 µM (inactive)	1.37 µM (inactive)	1.6 µM (inactive)	1.62 µM (inactive)	1.18 µM (inactive)	1.67 µM (inactive)	0.36 µM (active)	1.33 µM (inactive)	0.463 µM	1.63 µM (inactive)	3.94 µM (inactive)	1.73 µM (inactive)
